The record followed here is publication PMC10674166, “Sustainable Immobilization of β-Glucosidase onto Silver Ions and AgNPs-Loaded Acrylic Fabric with Enhanced Stability and Reusability” (Polymers, 2023).

This experiment concerns T1, β-glucosidase from almonds (β-Glu).
T1 construct: gene AH; free enzyme
The experiment is described as follows: p-nitrophenol release at […] nm, Lineweaver-Burk. Format: biochemical. Particulars: free enzyme; standard assay 0.1 M sodium acetate pH 6.0, 37 °C (pH and temperature of the kinetic runs not restated); apparent constant.

As to `O=[N+]([O-])c1ccc(O[C@@H]2O[C@H](CO)[C@@H](O)[C@H](O)[C@H]2O)cc1` [p-nitrophenyl-β-D-glucopyranoside], the Km (commonly the concentration of substrate that gives half-maximal velocity) worked out at 2600 µM.
